“And” between values parts separate entries of the source, which are not always exact repeats. Equal entries are not always repeated. Where two headings read alike, the source gives them in different places.
Columns and labels:
[1] = tested on: S6 phosphorylation (mTOR pathway); assay: Phosphorylated S6 by western blot in AML cells; type: cell-based, human; conditions: 20 nM, 24 hours (FIG. 7, top)
[2] = Lung concentration of rapamycin after inhalation, Study Day 1; type: in vivo, Sprague-Dawley rats
Description: The results of this initial study were replicated and expanded in additional rat studies and dog studies. […] Two sets of animals were used to perform the toxicokinetic measurements for this study.

[3] = tested on: Phospho-S6 Ribosomal Protein (Ser240/244); assay: S6-P/total S6 western blot of rat lung homogenates after inhalation; type: in vivo, Sprague-Dawley rats; conditions: inhaled, target dose 0.354 mg/kg (FIG. 8B)
Description: Lungs samples from each animal were collected and snap frozen. The individual frozen lung samples were homogenized (Qiagen TissueLyser LT according to manufacturer's protocols) in 1×RIPA Buffer with protease and phosphatase inhibitors. […] The Western blot images were analyzed by NIH imageJ v1.48 to generate the respective antibody reactivity/intensity and create the ratio of S6 phosphorylation (S6-P) to total S6 intensities for each lung sample. The S6-P/total S6 ratios (y-axis) for sample organized by timepoint group (X-axis) were plotted on a one grouping variable scatter plot vertical graph (GraphPad, version 4.0), all samples in groups are represented by filled in black dots (●) on the graph and average is shown by the horizontal line between the dots within each respective group (FIG. 8B).

[4] = 28-day repeat dose inhalation toxicokinetics, study 7300225; type: in vivo, SD rats; conditions: average of D28
Description: Two sets of animals were used to perform the toxicokinetic measurements for this study.

[5] = Extrapolation of rat and dog inhalation data to human dosing; conditions: extrapolated
[6] = Particle size distribution by laser diffraction after size reduction; type: physicochemical
Description: For jet milling, a lab scale MCOne unit from Jetpharma was used with the following operating conditions: venturi pressure 2-4 bar, milling pressure 3-5 bar, feed rate 90 g/h. For wet polishing, feed suspensions were prepared using purified water. A microfluidics high pressure homogenizer was used for the size reduction step and the resulting suspension was spray-dried. Details of the wet polishing process are set forth below.
The high pressure homogenizer used for the size reduction step of the wet polishing process was a pilot-scale Microfluidics High Pressure Homogenizer equipped with an auxiliary processing module (200 micron) and a 100 micron interaction chamber was used. The unit was operated at ˜455 bar (˜30 bar in the intensifier module hydraulic pressure). After microfluidization the fluid was removed by spray drying to generate a dry powder. A laboratory scale spray dryer, SD45 (BÜCHI, model B-290 Advanced) was equipped with a two fluid nozzle (cap and diameter were 1.4 and 0.7 mm, respectively). Two cyclones in series were used (being the first the standard Buchi cyclone and the second the high-performance Buchi cyclone) to collect the dried product. The spray drying unit was operated with nitrogen and in single pass mode, i.e. without recirculation of the drying nitrogen. The aspirator, blowing nitrogen, was set at 100% of its capacity (flow rate at maximum capacity is approximately 40 kg/h). The flow rate of the atomization nitrogen was adjusted to a value in the rotameter of 40±5 mm. Before feeding the product suspension, the spray dryer was stabilized with purified water, during which the flow rate was adjusted to 6 ml/min (20% in the peristaltic pump). The inlet temperature was adjusted to achieve the target outlet temperature (45° C.). After stabilization of the temperatures, the feed of the spray dryer was commuted from purified water to the product suspension (keeping the same flow rate used during stabilization) and the inlet temperature once again adjusted in order to achieve the target outlet temperature. At the end of the stock suspension, the feed was once more commuted to purified water in order to rinse the feed line and perform a controlled shut down. The dry product in the collection flasks under both cyclones was weighed and the yield calculated as the mass percentage of the dry product in relation to the total solids in the suspension fed to the high pressure homogenizer.
Particle size distribution was analyzed by laser diffraction. Solid state characterization (for polymorphic form and purity) was performed by high pressure liquid chromatography (HPLC), X-ray powder diffraction (XRPD), and differential scanning calorimetry (mDSC). Water content was determined by the Karl Fischer method.

[7] = IV 10 mg/kg, 24 hours after single dose; cited from earlier work
[8] = 24 hours after 14th dose, cited from earlier work
[9] = sirolimus in lymphangioleiomyomatosis; cited from earlier work
[10] = clinical use; cited from earlier work
[11] = in vivo; conditions: Sprague-Dawley, rat, inhaled
[12] = Observation for adverse effects / clinical signs after OPA dosing; conditions: for adverse effects / clinical signs: 1 mg/kg, up to 72 h after dosing
[13] = Biodistribution of rapamycin via inhalation, first study (single dose and 5 days)
[14] = emitted dose 50 ug, repeat inhaled daily dose 5 ug
[15] = emitted dose 2850 ug, repeat inhaled daily dose 285 ug
[16] = emitted dose 87 ug, repeat inhaled daily dose 35 ug
[17] = emitted dose 175 ug, repeat inhaled daily dose 70 ug
[18] = inhaled 0.0360 mg/kg/day once a day, trough day 5
[19] = inhaled 1.0000 mg/kg/day once a day, trough day 5

CO[C@H]1C[C@@H]2CC[C@@H](C)[C@@](O)(O2)C(=O)C(=O)N2CCCC[C@H]2C(=O)O[C@H]([C@H](C)C[C@@H]2CC[C@@H](O)[C@H](OC)C2)CC(=O)[C@H](C)/C=C(\C)[C@@H](O)[C@@H](OC)C(=O)[C@H](C)C[C@H](C)/C=C/C=C/C=C/1C [Rapamycin, (3 S,6R,7E,9R,10R,12R,14S,15E,17E,19E,21S,23 S,26R,27R,34aS)-9,10,12,13,-14,21,22,23,24,25,26,27,32,33,34,34a-hexadecahydro-9,27-dihydroxy-3-[(1R)-2-[(1S,3R,4R)-4-hydroxy-3-methoxycyclohexyl]-1-methylethyl]-10,21-dimethox-y-6,8,12,14,20,26-hexamethyl-23,27-epoxy-3H-pyrido[2,1-c][1,4]oxaazacyclohentriacontine-1,5,11,28,29(4H,6H,31H)-pentone]
S6 phosphorylation [1]: potently inhibits S6 phosphorylation | concentration at 2 h post-dosing ([2]; Sprague-Dawley, rat, lung, inhaled, target dose 11 ug Day 1, 2 hr post-dosing, read-out: Avg Lung rapa): 250 ng/g | concentration at 4 h post-dosing ([2]; Sprague-Dawley, rat, lung, inhaled, target dose 11 ug Day 1, 4 hr post-dosing, read-out: Avg Lung rapa): 192 ng/g | concentration at 12 h post-dosing ([2]; Sprague-Dawley, rat, lung, inhaled, target dose 11 ug Day 1, 12 hr post-dosing, read-out: Avg Lung rapa): 95 ng/g | Avg Lung rapa ([2]; target dose 11 ug Day 1, immediate post-dosing): 560 ng/g | Avg Lung rapa ([2]; target dose 11 ug Day 1, midway dosing): 462 ng/g | S6 phosphorylation in lung tissue [3]: Inhibits S6 Phosphorylation | Blood trough levels [4, 14]: 2 ng/mL | Max blood levels [4, 14]: 7.6 ng/mL | Max blood levels ([4]; emitted dose 1425 ug, repeat inhaled daily dose 143 ug): 70.5 ng/mL | Blood trough levels [4, 15]: 21.0 ng/mL | Max blood levels [4, 15]: 77.8 ng/mL | Blood trough levels [5, 16]: 0.15 ng/mL | Lung 24 hr trough levels [5, 16]: 2 ng/g | Max blood levels [5, 16]: 0.65 ng/mL | Blood trough levels [5, 17]: 0.3 ng/mL | Lung 24 hr trough levels [5, 17]: 4 ng/g | Max blood levels [5, 17]: 1.3 ng/mL | PSD Dv10 ([6]; jet milling): 1.5 μm and 1.51 μm | PSD Dv50 ([6]; jet milling): 2.7 μm and 2.74 μm | PSD Dv90 ([6]; jet milling): 4.9 μm and 4.91 μm | PSD Dv10 ([6]; wet polishing): 1.51 μm | PSD Dv50 ([6]; wet polishing): 2.74 μm | PSD Dv90 ([6]; wet polishing): 5.0 μm and 4.91 μm | Rapamycin in Blood [7]: 31 ng/mL | Rapamycin in Lung [7]: 721 ng/g | Rapamycin in Blood ([8]; IV 0.04 mg/kg/day): 9.4 ng/mL | Rapamycin in Lung ([8]; IV 0.04 mg/kg/day): 219 ng/g | Rapamycin in Blood ([8]; IV 0.08 mg/kg/day): 15.0 ng/mL | Rapamycin in Lung ([8]; IV 0.08 mg/kg/day): 457 ng/g | Rapamycin in Blood ([8]; IV 0.40 mg/kg/day): 19.6 ng/mL | Rapamycin in Lung ([8]; IV 0.40 mg/kg/day): 868 ng/g | Rapamycin in Blood ([8]; oral 0.4 mg/kg/day): 0.8 ng/mL | Rapamycin in Lung ([8]; oral 0.4 mg/kg/day): 42 ng/g | Rapamycin in Blood ([8]; oral 0.8 mg/kg/day): 2.1 ng/mL | Rapamycin in Lung ([8]; oral 0.8 mg/kg/day): 59 ng/g | blood concentrations reported [9]: 5 to 15 ng/mL | lung toxicity [10]: pulmonary toxicity, usually in the form of interstitial pneumonitis | concentration at 12 h ([11]; lung, 0.036 mg/kg/day): 95 ng/g | concentration at 12 h ([11]; lung, 1 mg/kg/day): ~14800 ng/g | concentration at 12 h ([11]; whole blood, 0.036 mg/kg/day): 4 ng/mL | concentration at 12 h ([11]; whole blood, 1 mg/kg/day): 645 ng/mL | adverse effects / clinical signs [12]: No significant clinical signs were observed | adverse effects / clinical signs ([12]; listed as rapamycin): No adverse effects were observed | acute toxicity to lung tissue ([12]; OPA 1 mg/kg, relatively high amounts in lung): not acutely toxic to lung tissue | Rapamycin in Blood [13, 18]: 4 ng/mL | Rapamycin in Lung [13, 18]: 87 ng/g | Rapamycin in Blood [13, 19]: 746 ng/mL | Rapamycin in Lung [13, 19]: 17163 ng/g | Rapamycin in Lung ([13]; inhaled 1.00 mg/kg/day, 12 hrs after a single dose): 14831 ng/g
